Reference: the NIST ThermoML archive (doi:10.1021/je060271a)

Conditions: 283.15 K, Liquid, Vibrating tube method

CCCCCC(=O)OCC(COC(=O)CCCCC)(COC(=O)CCCCC)COC(=O)CCCCC [pentaerythritol tetrahexanoate]
Conditions | mass density [kg/m3]
25591 kPa | 1018.3
25610 kPa | 1018.3
25634 kPa | 1018.4
25653 kPa | 1018.5
25672 kPa | 1018.4
25696 kPa | 1018.4
25716 kPa | 1018.4
25738 kPa | 1018.5
25757 kPa | 1018.5
25774 kPa | 1018.5
25793 kPa | 1018.4
25815 kPa | 1018.4
25832 kPa | 1018.4
25851 kPa | 1018.4
25872 kPa | 1018.5
25890 kPa | 1018.4
25912 kPa | 1018.6
25930 kPa | 1018.7
25948 kPa | 1018.5
25966 kPa | 1018.5
25986 kPa | 1018.5
26002 kPa | 1018.5
26022 kPa | 1018.6
26039 kPa | 1018.6
26056 kPa | 1018.6
26075 kPa | 1018.7
26091 kPa | 1018.6
26108 kPa | 1018.7
26127 kPa | 1018.6
26143 kPa | 1018.8
26160 kPa | 1018.6
26180 kPa | 1018.7
26196 kPa | 1018.6
26213 kPa | 1018.6
26233 kPa | 1018.7
26249 kPa | 1018.7
26266 kPa | 1018.8
26287 kPa | 1018.8
26303 kPa | 1018.7
26320 kPa | 1018.8
26337 kPa | 1018.8
26357 kPa | 1018.7
26374 kPa | 1018.7
26394 kPa | 1018.6
26410 kPa | 1018.8
26428 kPa | 1018.7
26448 kPa | 1018.9
26465 kPa | 1018.8
26483 kPa | 1018.7
26500 kPa | 1018.8
26521 kPa | 1018.9
26538 kPa | 1018.8
26559 kPa | 1018.9
26576 kPa | 1018.9
26593 kPa | 1018.8
26609 kPa | 1018.8
26629 kPa | 1018.9
26645 kPa | 1018.9
26661 kPa | 1019
26680 kPa | 1018.9
26696 kPa | 1018.9
26713 kPa | 1018.9
26730 kPa | 1018.9
26746 kPa | 1018.9
26766 kPa | 1019
26782 kPa | 1019
26798 kPa | 1019
26818 kPa | 1019
26834 kPa | 1019
26850 kPa | 1018.9
26870 kPa | 1019
26886 kPa | 1019
26902 kPa | 1019
26957 kPa | 1019.1
26974 kPa | 1019
26993 kPa | 1019.2
27010 kPa | 1019.1
27026 kPa | 1019
27042 kPa | 1019.2
27063 kPa | 1019.1
27080 kPa | 1019.2
27097 kPa | 1019.1
27117 kPa | 1019
27134 kPa | 1019.1
27155 kPa | 1019.2
27172 kPa | 1019.2
27188 kPa | 1019.2
27204 kPa | 1019.3
27222 kPa | 1019.2
27238 kPa | 1019.2
27253 kPa | 1019.2
27272 kPa | 1019.2
27288 kPa | 1019.3
27306 kPa | 1019.2
27322 kPa | 1019.4
27338 kPa | 1019.3
27354 kPa | 1019.3
27373 kPa | 1019.2
27388 kPa | 1019.2
27404 kPa | 1019.3
27423 kPa | 1019.3
27439 kPa | 1019.3
27458 kPa | 1019.4
27474 kPa | 1019.3
27489 kPa | 1019.4
27505 kPa | 1019.3
27524 kPa | 1019.4
27540 kPa | 1019.3
27560 kPa | 1019.3
27576 kPa | 1019.3
27592 kPa | 1019.4
27611 kPa | 1019.4
27627 kPa | 1019.3
27644 kPa | 1019.4
27660 kPa | 1019.5
27679 kPa | 1019.5
27696 kPa | 1019.4
27712 kPa | 1019.5
27732 kPa | 1019.4
27748 kPa | 1019.5
27764 kPa | 1019.6
27784 kPa | 1019.5
27800 kPa | 1019.4
27817 kPa | 1019.5
27837 kPa | 1019.5
27853 kPa | 1019.4
27869 kPa | 1019.5
27889 kPa | 1019.6
27906 kPa | 1019.6
27922 kPa | 1019.7
27942 kPa | 1019.6
27959 kPa | 1019.6
27976 kPa | 1019.5
27996 kPa | 1019.7
28012 kPa | 1019.5
28029 kPa | 1019.6
28046 kPa | 1019.7
28066 kPa | 1019.7
28083 kPa | 1019.7
28100 kPa | 1019.7
28120 kPa | 1019.6
28136 kPa | 1019.6
28153 kPa | 1019.7
28170 kPa | 1019.8
28190 kPa | 1019.8
28207 kPa | 1019.9
28225 kPa | 1019.7
28245 kPa | 1019.7
28262 kPa | 1019.7
28280 kPa | 1019.8
28297 kPa | 1019.7
28314 kPa | 1019.7
28334 kPa | 1019.8
28351 kPa | 1019.7
28371 kPa | 1019.8
28388 kPa | 1019.7
28405 kPa | 1019.9
28422 kPa | 1019.7
28443 kPa | 1019.8
28460 kPa | 1019.8
28478 kPa | 1019.8
28500 kPa | 1019.8
28517 kPa | 1019.8
28535 kPa | 1019.9
28552 kPa | 1019.9
28570 kPa | 1019.9
28591 kPa | 1019.9
28608 kPa | 1020
28629 kPa | 1019.9
28646 kPa | 1019.9
28664 kPa | 1019.9
28686 kPa | 1019.9
28703 kPa | 1020
28722 kPa | 1019.9
28744 kPa | 1019.9
28763 kPa | 1019.9
28781 kPa | 1019.9
28800 kPa | 1020
28815 kPa | 1020.1
28830 kPa | 1020.1
28848 kPa | 1020
28863 kPa | 1020
28878 kPa | 1020.2
28896 kPa | 1020
28911 kPa | 1020
28926 kPa | 1020
28944 kPa | 1020.1
28958 kPa | 1020.1
28973 kPa | 1020
28990 kPa | 1020.2
29004 kPa | 1020.2
29018 kPa | 1020.1
29035 kPa | 1020
29050 kPa | 1020.2
29064 kPa | 1020.1
29081 kPa | 1020.1
29096 kPa | 1020.3
29110 kPa | 1020.2
29127 kPa | 1020.2
29142 kPa | 1020.1
29156 kPa | 1020.1
29171 kPa | 1020.1
29188 kPa | 1020.2
29202 kPa | 1020.1
29219 kPa | 1020.3
29234 kPa | 1020.3
29248 kPa | 1020.3
29263 kPa | 1020.3
29280 kPa | 1020.2
29295 kPa | 1020.3
29313 kPa | 1020.3
29327 kPa | 1020.3
29342 kPa | 1020.3
29357 kPa | 1020.3
29375 kPa | 1020.3
29389 kPa | 1020.4
29407 kPa | 1020.3
29422 kPa | 1020.4
29436 kPa | 1020.2
29451 kPa | 1020.4
29469 kPa | 1020.3
29484 kPa | 1020.4
29499 kPa | 1020.3
29516 kPa | 1020.3
29531 kPa | 1020.5
29547 kPa | 1020.3
29564 kPa | 1020.4
29579 kPa | 1020.4
29594 kPa | 1020.4
29609 kPa | 1020.4
29627 kPa | 1020.4
29642 kPa | 1020.5
29660 kPa | 1020.5
29675 kPa | 1020.5
29690 kPa | 1020.6
29708 kPa | 1020.6
29723 kPa | 1020.4
29738 kPa | 1020.6
29754 kPa | 1020.5
29770 kPa | 1020.5
29788 kPa | 1020.5
29803 kPa | 1020.5
29821 kPa | 1020.5
29837 kPa | 1020.6
29852 kPa | 1020.6
29867 kPa | 1020.6
29886 kPa | 1020.6
29901 kPa | 1020.5
29916 kPa | 1020.5
29935 kPa | 1020.6
29950 kPa | 1020.6
29967 kPa | 1020.7
29982 kPa | 1020.5
29998 kPa | 1020.6
30016 kPa | 1020.5
30032 kPa | 1020.6
30048 kPa | 1020.6
30066 kPa | 1020.6
30082 kPa | 1020.6
30097 kPa | 1020.6
30116 kPa | 1020.6
30131 kPa | 1020.7
30147 kPa | 1020.7
30163 kPa | 1020.7
30182 kPa | 1020.7
30198 kPa | 1020.8
30214 kPa | 1020.7
30232 kPa | 1020.7
30248 kPa | 1020.8
30264 kPa | 1020.7
30280 kPa | 1020.7
30298 kPa | 1020.7
30314 kPa | 1020.9
30330 kPa | 1020.9
30349 kPa | 1020.8
30364 kPa | 1020.8
30384 kPa | 1020.9
30400 kPa | 1020.8
30416 kPa | 1020.9
30431 kPa | 1020.8
30451 kPa | 1020.8
30466 kPa | 1020.9
30482 kPa | 1020.9
30502 kPa | 1020.9
30517 kPa | 1020.9
30536 kPa | 1020.9
30552 kPa | 1020.9
30568 kPa | 1020.9
30587 kPa | 1021
